This test addresses T1, Human PD-L1/PD-1 (Homo sapiens, UniProt Q9NZQ7).
T1 construct: TVMV protease cleavage site (C); made in house; host or cells: HEK293T cells
Nature of the test: HTRF Human PD-L1/PD-1 binding assay (PD-1-Ig/PD-L1-His). As to conditions: PD-L1-His 10 nM, PD-1-Ig 20 nM; class symbol; read-out: HTRF Human PD-L1/PD-1 Binding Assay IC50 Range. In short, it runs like this: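 Inhibitors were preincubated 15 min with human PD-L1(18-239)-His (10 nM final), then PD-1(25-167)-Ig (20 nM final) was added for 15 min in dPBS/0.1% BSA/0.05% Tween-20. Eu-cryptate anti-Ig (1 nM) and APC anti-His (20 nM) were added; 665/620 nm ratio read after 30 min.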

This is an account of results in patent publication US10538555B2, “Macrocyclic inhibitors of the PD-1/PD-L1 and CD80(B7-1)/PD-L1 protein/protein interactions” (BRISTOL-MYERS SQUIBB COMPANY, priority 2014, dated 2020).

Where a SMILES comes first, the peptide text is derived from it. Bridges are numbered along the chain shown (N, C = ends). [ ]: non-standard residue; d: D form. ξ: configuration not given here. Morpholine(3S-CO,6,6-Me2) = CC1(C)CN[C@H](C(=O)O)CO1; Phe(3,4,5-F3) = N[C@@H](Cc1cc(F)c(F)c(F)c1)C(=O)O; Phe(3,4-F2) = N[C@@H](Cc1ccc(F)c(F)c1)C(=O)O; Trp(1-Me) = Cn1cc(C[C@H](N)C(=O)O)c2ccccc21; NMePhe(4-F) = CN[C@@H](Cc1ccc(F)cc1)C(=O)O; Phe(4-F) = N[C@@H](Cc1ccc(F)cc1)C(=O)O; d(cisHyp) = O=C(O)[C@H]1C[C@@H](O)CN1; Bta = N[C@@H](Cc1csc2ccccc12)C(=O)O; Hyp = O=C(O)[C@@H]1C[C@@H](O)CN1; NMeF = CN[C@@H](Cc1ccccc1)C(=O)O; dHyp = O=C(O)[C@H]1C[C@H](O)CN1; NMeL = CN[C@@H](CC(C)C)C(=O)O; NMeNle = CCCC[C@H](NC)C(=O)O; Pip = O=C(O)[C@@H]1CCCCN1; dPip = O=C(O)[C@H]1CCCCN1; hSer = N[C@@H](CCO)C(=O)O; NMeA = CN[C@@H](C)C(=O)O; Orn = NCCC[C@H](N)C(=O)O; Dab = NCC[C@H](N)C(=O)O; Dap = NC[C@H](N)C(=O)O; ξC = NC(CS)C(=O)O

T1 sequence (Q9NZQ7 with tags, fused parts or gaps): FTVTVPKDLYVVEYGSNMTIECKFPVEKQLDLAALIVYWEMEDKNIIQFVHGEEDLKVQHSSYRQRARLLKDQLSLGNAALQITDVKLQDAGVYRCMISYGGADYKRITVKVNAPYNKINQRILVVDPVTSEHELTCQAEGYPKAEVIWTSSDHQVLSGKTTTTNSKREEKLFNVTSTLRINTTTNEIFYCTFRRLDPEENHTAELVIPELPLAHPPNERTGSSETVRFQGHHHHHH

For the molecule `CCCC[C@H]1C(=O)N(C)[C@@H](CCCC)C(=O)N[C@@H](CCCN)C(=O)N[C@H](C(=O)NCC(N)=O)CSCC(=O)N[C@@H](Cc2ccc(OC)cc2)C(=O)N(C)[C@@H](C)C(=O)N[C@@H](CC(N)=O)C(=O)N2CCC[C@H]2C(=O)N[C@@H](CN)C(=O)N[C@@H](CCC(=O)O)C(=O)N2C[C@H](O)C[C@H]2C(=O)N[C@@H](Cc2c[nH]c3ccccc23)C(=O)N[C@@H](CC(=O)O)C(=O)N[C@@H](Cc2c[nH]c3ccccc23)C(=O)N1C` [Example 7100] ({CH2CO}-Y(Me)[NMeA]NP[Dap]E[Hyp]WDW[NMeNle][NMeNle][Orn]CG-NH2; thioether N-14), the IC50 is 1 to 9.9 nM.
Regarding `CCCC[C@H]1C(=O)N2CCC[C@@H]2C(=O)N[C@@H](CC(=O)O)C(=O)N[C@@H](C(C)C)C(=O)N(C)[C@@H](Cc2ccccc2)C(=O)N[C@@H](CCC(=O)O)C(=O)N2CCCC[C@@H]2C(=O)N[C@@H](Cc2c[nH]c3ccccc23)C(=O)N[C@@H](Cc2ccc(O)cc2)C(=O)N[C@@H](CCCCN)C(=O)N[C@H](C(=O)NCC(N)=O)CSCC(=O)N[C@@H](Cc2cc(F)c(F)c(F)c2)C(=O)N(C)[C@@H](Cc2ccc(F)cc2)C(=O)N1C` [Example 10564] ({CH2CO}-[Phe(3,4,5-F3)][NMePhe(4-F)][NMeNle][dP]DV[NMeF]E[dPip]WYKCG-NH2; thioether N-13), the IC50 lay within 1 to 9.9 nM.
On to `CCCC[C@H]1C(=O)N2C[C@H](O)C[C@@H]2C(=O)N[C@@H](CC(=O)O)C(=O)N[C@@H](C(C)C)C(=O)N(C)[C@@H](Cc2ccccc2)C(=O)N[C@@H](CC(=O)O)C(=O)N2CCC[C@@H]2C(=O)N[C@@H](Cc2c[nH]c3ccccc23)C(=O)N[C@@H](Cc2ccc(O)cc2)C(=O)N[C@@H](CCO)C(=O)N[C@H](C(=O)NCC(N)=O)CSCC(=O)N[C@@H](Cc2cc(F)c(F)c(F)c2)C(=O)N(C)[C@@H](Cc2ccccc2)C(=O)N1C` [Example 10155] ({CH2CO}-[Phe(3,4,5-F3)][NMeF][NMeNle][d(cisHyp)]DV[NMeF]D[dP]WY[hSer]CG-NH2; thioether N-13), for which the IC50 was 1 to 9.9 nM.
Regarding `CCCC[C@H]1C(=O)N(C)[C@@H](CCCC)C(=O)N[C@@H](CCC(=O)O)C(=O)N[C@H](C(=O)NCC(N)=O)CSCC(=O)N[C@@H](Cc2ccc(O)cc2)C(=O)N2CCCC[C@H]2C(=O)N[C@@H](CC(N)=O)C(=O)N2CCC[C@H]2C(=O)N[C@@H](Cc2cnc[nH]2)C(=O)N[C@@H](CCC(=O)O)C(=O)N2C[C@H](O)C[C@H]2C(=O)N[C@@H](Cc2c[nH]c3ccccc23)C(=O)N[C@@H](CO)C(=O)N[C@@H](Cc2cn(C)c3ccccc23)C(=O)N1C` [Example 1504] ({CH2CO}-Y[Pip]NPHE[Hyp]WS[Trp(1-Me)][NMeNle][NMeNle]ECG-NH2; thioether N-14), the IC50 was in the range of 10 to 99.9 nM.
Turning to `CCCC[C@H]1C(=O)N[C@@H](CC(N)=O)C(=O)N2CCC[C@H]2C(=O)N[C@@H](CO)C(=O)N[C@@H](CCO)C(=O)N2C[C@H](O)C[C@H]2C(=O)N[C@@H](Cc2c[nH]c3ccccc23)C(=O)N[C@@H](CCO)C(=O)N[C@@H](Cc2c[nH]c3ccccc23)C(=O)N(C)[C@@H](C)C(=O)N(C)[C@@H](C)C(=O)N[C@@H](CCC(=O)O)C(=O)NC(C(=O)NCC(N)=O)CSCC(=O)N[C@@H](Cc2ccc(O)cc2)C(=O)N1C` (stereo partly drawn) [Example 10218] ({CH2CO}-Y[NMeNle]NPS[hSer][Hyp]W[hSer]W[NMeA][NMeA]E[ξC]G-NH2; thioether N-14), the IC50 fell in the range of 1000 to 10000 nM.
Take `CCCC[C@H]1C(=O)N(C)CC(=O)N[C@@H](CC(N)=O)C(=O)N[C@@H](C(C)C)C(=O)N(C)[C@@H](Cc2ccccc2)C(=O)N[C@@H](Cc2ccc(O)cc2)C(=O)N(C)CC(=O)N[C@@H](Cc2c[nH]c3ccccc23)C(=O)N[C@@H](Cc2ccc(O)cc2)C(=O)N[C@@H](CCCN)C(=O)N[C@H](C(=O)NCC(N)=O)CSCC(=O)N[C@@H](Cc2ccccc2)C(=O)N(C)[C@@H](Cc2ccncc2)C(=O)N1C` (single isomer, unassigned) [Example 3638-A]: the IC50 was in the range of 1000 to 10000 nM.
On to `CCCC[C@H]1C(=O)N2CCC[C@@H]2C(=O)N[C@@H](CC(=O)O)C(=O)N[C@@H](C(C)C)C(=O)N(C)[C@@H](CC(C)C)C(=O)N[C@@H](CCC(N)=O)C(=O)N2CCCC[C@@H]2C(=O)N[C@@H](Cc2c[nH]c3ccccc23)C(=O)N[C@@H](Cc2ccc(O)cc2)C(=O)N[C@@H](CCCN)C(=O)N[C@H](C(=O)NCC(N)=O)CSCC(=O)N[C@@H](Cc2ccc(F)cc2)C(=O)N(C)[C@@H](Cc2ccccc2)C(=O)N1C` [Example 9256] ({CH2CO}-[Phe(4-F)][NMeF][NMeNle][dP]DV[NMeL]Q[dPip]WY[Orn]CG-NH2; thioether N-13), for which the IC50 lay within 1000 to 10000 nM.
In the case of `CCCC[C@H]1C(=O)N2CCC[C@@H]2C(=O)N[C@@H](CC(=O)O)C(=O)N[C@@H](C(C)C)C(=O)N(C)[C@@H](Cc2ccccc2)C(=O)N[C@@H](Cc2ccc(O)cc2)C(=O)N2C[C@@H](O)C[C@@H]2C(=O)N[C@@H](Cc2c[nH]c3ccccc23)C(=O)N[C@@H](Cc2ccc(O)cc2)C(=O)N[C@@H](CCCN)C(=O)N[C@H](C(=O)NCC(N)=O)CSCC(=O)N[C@@H](Cc2cc(F)c(F)c(F)c2)C(=O)N(C)[C@@H](Cc2ccccc2)C(=O)N1C` [Example 9288] ({CH2CO}-[Phe(3,4,5-F3)][NMeF][NMeNle][dP]DV[NMeF]Y[dHyp]WY[Orn]CG-NH2; thioether N-13), the IC50 fell in the range of 1 to 9.9 nM.
Consider `CCCC[C@H]1C(=O)N(C)[C@@H](CCCC)C(=O)N[C@@H](CCC(=O)O)C(=O)N[C@H](C(=O)NCC(N)=O)CSCC(=O)N[C@@H](Cc2ccc(O)cc2)C(=O)N(C)[C@@H](C)C(=O)N[C@@H](CC(=O)O)C(=O)N2CCC[C@H]2C(=O)N[C@@H](CO)C(=O)N[C@@H](CCC(N)=O)C(=O)N2C[C@H](O)C[C@H]2C(=O)N[C@@H](Cc2c[nH]c3ccccc23)C(=O)N[C@@H](CCC(=O)O)C(=O)N[C@@H](Cc2c[nH]c3ccccc23)C(=O)N1C` [Example 5177] ({CH2CO}-Y[NMeA]DPSQ[Hyp]WEW[NMeNle][NMeNle]ECG-NH2; thioether N-14), for which the IC50 was in the range of 10 to 99.9 nM.
Take `CCCC[C@H]1C(=O)N(C)[C@@H](CCCC)C(=O)N[C@@H](C)C(=O)N[C@H](C(=O)NCC(N)=O)CSCC(=O)N[C@@H](Cc2ccc(O)cc2)C(=O)N2CC(C)(C)OC[C@H]2C(=O)N[C@@H](CC(N)=O)C(=O)N2CCC[C@H]2C(=O)N[C@@H](CN)C(=O)N[C@@H](CCC(N)=O)C(=O)N2C[C@H](O)C[C@H]2C(=O)N[C@@H](Cc2c[nH]c3ccccc23)C(=O)N[C@@H](CO)C(=O)N[C@@H](Cc2c[nH]c3ccccc23)C(=O)N1C` [Example 1281] ({CH2CO}-Y[Morpholine(3S-CO,6,6-Me2)]NP[Dap]Q[Hyp]WSW[NMeNle][NMeNle]ACG-NH2; thioether N-14): the IC50 lay in the range of 1 to 9.9 nM.
In the case of `CCCC[C@H]1C(=O)N2C[C@H](O)C[C@@H]2C(=O)N[C@@H](CC(=O)O)C(=O)N[C@@H](C(C)C)C(=O)N(C)[C@@H](Cc2ccccc2)C(=O)N[C@@H](CCN)C(=O)N2C[C@H](O)C[C@@H]2C(=O)N[C@@H](Cc2c[nH]c3ccccc23)C(=O)N[C@@H](Cc2ccc(O)cc2)C(=O)N[C@@H](CCCN)C(=O)N[C@H](C(=O)NCC(N)=O)CSCC(=O)N[C@@H](Cc2cc(F)c(F)c(F)c2)C(=O)N(C)[C@@H](Cc2ccc(F)cc2)C(=O)N1C` [Example 10613] ({CH2CO}-[Phe(3,4,5-F3)][NMePhe(4-F)][NMeNle][d(cisHyp)]DV[NMeF][Dab][d(cisHyp)]WY[Orn]CG-NH2; thioether N-13), the IC50 fell in the range of 1 to 9.9 nM.
The result for `CCCC[C@H]1C(=O)N2C[C@H](O)C[C@@H]2C(=O)N[C@@H](CC(=O)O)C(=O)N[C@@H](C(C)C)C(=O)N(C)[C@@H](Cc2ccccc2)C(=O)N[C@@H](CCCN)C(=O)N2C[C@H](O)C[C@@H]2C(=O)N[C@@H](Cc2c[nH]c3ccccc23)C(=O)N[C@@H](Cc2ccc(O)cc2)C(=O)N[C@@H](CC(C)C)C(=O)N[C@H](C(=O)NCC(N)=O)CSCC(=O)N[C@@H](Cc2ccc(F)c(F)c2)C(=O)N(C)[C@@H](Cc2ccccc2)C(=O)N1C` [Example 9296] ({CH2CO}-[Phe(3,4-F2)][NMeF][NMeNle][d(cisHyp)]DV[NMeF][Orn][d(cisHyp)]WYLCG-NH2; thioether N-13) reads 1 to 9.9 nM.
As to `CCCC[C@H]1C(=O)N2C[C@@H](O)C[C@@H]2C(=O)N[C@@H](CC(=O)O)C(=O)N[C@@H](C(C)C)C(=O)N(C)[C@@H](Cc2ccccc2)C(=O)N[C@@H](Cc2ccc(O)cc2)C(=O)N2C[C@@H](O)C[C@@H]2C(=O)N[C@@H](Cc2c[nH]c3ccccc23)C(=O)N[C@@H](Cc2ccc(O)cc2)C(=O)N[C@@H](CCCN)C(=O)N[C@H](C(=O)NCC(N)=O)CSCC(=O)N[C@@H](Cc2cc(F)c(F)c(F)c2)C(=O)N(C)[C@@H](Cc2ccccc2)C(=O)N1C` [Example 9274] ({CH2CO}-[Phe(3,4,5-F3)][NMeF][NMeNle][dHyp]DV[NMeF]Y[dHyp]WY[Orn]CG-NH2; thioether N-13), the IC50 was in the range of 1 to 9.9 nM.
Turning to `CCCC[C@H]1C(=O)N(C)[C@@H](CCCC)C(=O)N[C@@H](CCC(=O)O)C(=O)N[C@H](C(=O)NCC(N)=O)CSCC(=O)N[C@@H](Cc2ccc(O)cc2)C(=O)N(C)[C@@H](C)C(=O)N[C@@H](CC(N)=O)C(=O)N2CCC[C@H]2C(=O)N[C@@H](CO)C(=O)N[C@@H](CCC(N)=O)C(=O)N2C[C@H](O)C[C@H]2C(=O)N[C@@H](Cc2c[nH]c3ccccc23)C(=O)N[C@@H](CCC(=O)O)C(=O)N[C@@H](Cc2c[nH]c3ccccc23)C(=O)N1C` [Example 5240] ({CH2CO}-Y[NMeA]NPSQ[Hyp]WEW[NMeNle][NMeNle]ECG-NH2; thioether N-14), the IC50 fell in the range of 1 to 9.9 nM.
Turning to `CCCC[C@H]1C(=O)N(C)[C@@H](CCCC)C(=O)N[C@@H](CCCNC(=N)N)C(=O)NC(C(=O)NCC(N)=O)CSCC(=O)N[C@@H](Cc2ccc(O)cc2)C(=O)N(C)[C@@H](C)C(=O)N[C@@H](Cc2cnc[nH]2)C(=O)N2CCC[C@H]2C(=O)N[C@@H](CC(N)=O)C(=O)N[C@@H](CC(C)C)C(=O)N2CCC[C@H]2C(=O)N[C@@H](Cc2c[nH]c3ccccc23)C(=O)N[C@@H](CO)C(=O)N[C@@H](Cc2csc3ccccc23)C(=O)N1C` (stereo partly drawn) [Example 9145] ({CH2CO}-Y[NMeA]HPNLPWS[Bta][NMeNle][NMeNle]R[ξC]G-NH2; thioether N-14), the IC50 was 1 to 9.9 nM.
